Where “and” joins values, the source holds several entries; their conditions need not be identical. Identical values can stand only once. Entries after “also recorded” stand apart in the source; their conditions may differ.
Legend:
[1] = test system: primary muscle cells from GSD IIIa patients; assay: rhGAA treatment of cultured primary muscle cells from GSD III patients; format: cell-based, human; conditions: normal and GSD III patient primary muscle cells, rhGAA added to culture
Experimental: FIG. 2 illustrates an analysis of the skeletal muscle biopsies from two GSD Ma patients, a person (Pt. 1) and a person (Pt. 2). […] (B) Under EM, occasional lysosomal glycogen (arrow) was also seen in the myocytes (scale bar=1 μm). […] (E) GAA activity in normal and patient cells 48 h after adding recombinant human acid alpha-glucosidase (rhGAA, Myozyme, alglucosidase alfa) treatment. […] Mean±standard deviation is shown in C—F (n=4). The significance of differences between two different groups was assessed using the two-tailed, equal variance student T-test ([…]).

[2] = test system: primary GSD IV mouse muscle cells; assay: rhGAA treatment of cultured primary myoblasts from GSD IV mice; format: cell-based
Experimental: Primary myoblast cells were isolated from 7-day-old GSD IV mouse skeletal muscle. Early passage cells were seeded in 10-cm culture dishes with EMEM medium containing 10% FBS. When cells reached 90% confluence, rhGAA was added to the culture medium (final activity =1000 nmol/hr/ml). The cells were harvested 24 hours later to analyze glycogen content and GAA activity.
Reduction of glycogen deposition in GSD IV mouse myoblasts by rhGAA treatment was also confirmed by immunofluorescence staining using a mouse anti-glycogen monoclonal antibody ESG1A9mAb.

GSD IV mice = assay: Short-term rhGAA enzyme replacement therapy in GSD IV mice; format: in vivo, mouse
Experimental: (§1) Methods: A short-term study was conducted to determine the minimum effective dose (MED) of rhGAA treatment with 3 dosages: 20 mg/kg (human equivalent dose, n=6), 40 mg/kg (n=9), and 100 mg/kg (n=8). Male GSD IV mice received weekly intravenous injections of rhGAA were conducted for 4 week starting at age of 10 weeks. A group of age-matched untreated mice (n=8) were used as controls. To prevent anaphylactic reactions, the animals were administered 25 mg/kg diphenhydramine (i.p.) 10-15 min prior to enzyme administration. All mice were sacrificed 48 hours after the last injection following overnight fasting. Fresh tissues were immediately frozen and stored at −80° C. until use for GAA activity and glycogen content analyses. Protein concentration was measured using BCA method.

GSD III mice = assay: Short-term rhGAA enzyme replacement therapy in GSD III mice; format: in vivo, mouse
Experimental: as §1, with “GSD III mice were used to test 3 dosages” for “A short-term study was conducted”, “treatment:” for “treatment with 3 dosages:”, “(n=6),” for “(human equivalent dose, n=6),”, “(n=5),” for “(n=9),”, “(n=7). Weekly” for “(n=8). Male GSD IV mice received weekly”, “10 -15” for “10-15”

[3] = test system: patient with PRKAG2 pathogenic gene mutation; assay: Alglucosidase alfa ERT in a patient with PRKAG2 mutation (case report); format: in vivo, human; conditions: for overall clinical response (neurological, occupational and physical therapy reports): after reinitiation of ERT
Excerpt: A patient was born by caesarian section at 38 weeks gestation as a result of the nuchal cord being wrapped around their neck. The patient was noted to have hypotonia and generalized muscle weakness. They were areflexic and had feeding difficulties. The patient began developing severe lower respiratory infections which led to frequent admissions to the hospital. […] Following numerous recurrent pneumonias, and the history of muscle weakness, the patient's physicians raised Pompe disease as a potential diagnosis. […] Given the early findings of hypotonia and the low GAA enzyme activity, a diagnosis of non-classic infantile Pompe disease was made. The patient was initiated on ERT with alglucosdase alfa at a dose of 20 mg/kg every 2 weeks.
Baseline assessments were done which included tests for AST (44 IU/L; normal range: <45 IU/L), ALT (20 IU/L; normal range: 9-80 IU/L), along with PT measures looking at muscle strength and function measures. […] Upon examination, the patient has developed more defined calf muscles, along with an improvement of […] strength and power. […] has grown physically stronger and has not had episodes in which […] lacks energy for consecutive days, becomes completely floppy, and is unable to hold their head up properly following a seizure.
At baseline, according to the MABC assessment, the patient achieved a Total Test Score of 68 ranking them in the 25th percentile. Five months after reinitiation of ERT, the patient achieved a Total Test Score of 73 on […] MABC assessment, ranking them in the 37th percentile. A minimal detectable change (MDC) for the MABC has been reported as 1.21 points, representing a true change in motor function. The results in this child show an increase of 5 points over 5 months, which is greater than the minimal important difference (MID) of the MABC, which has been reported as a change of 2.5 points shown over 6 months.

[4] = rhGAA 1000 nmol/hr/ml in medium, cells harvested 24 hours later
[5] = 20 mg/kg weekly i.v. for 4 weeks
[6] = 40 mg and 100 mg rhGAA treatment
[7] = 40 mg/kg weekly i.v. for 4 weeks
[8] = weekly rhGAA for 4 weeks at 20, 40 or 100 mg/kg, data not shown
[9] = over 5 months on ERT vs pre-ERT baseline
[10] = reassessment, 5 months post ERT

recombinant human acid alpha-glucosidase [rhGAA]
glycogen concentration [1]: significantly reduced
glycogen deposition (immunofluorescence staining) ([2]; 4 hours after rhGAA treatment): reduction of glycogen was obvious
glycogen deposition (immunofluorescence staining) ([2]; 24 hours after rhGAA treatment): became more evident
glycogen deposition (anti-glycogen antibody ESG1A9mAb staining) ([2]; immunofluorescence staining): reduced glycogen deposition
GAA activity increase [2, 4]: 50%
glycogen content decrease [2, 4]: 24%
glycogen content ([2]; rhGAA treated vs untreated cells): significantly (p<0.01) reduced
glycogen in any tissue (GSD IV mice; 20 mg/kg): failed to reduce glycogen in any tissue
reduction of glycogen accumulation in liver (GSD IV mice; 20 mg/kg): not significant
GAA activity in heart, increase (GSD IV mice; [5]): 1.7 fold
GAA activity in liver, increase over untreated controls (GSD IV mice; [5]): 29 fold
liver glycogen decrease (GSD IV mice; [6]): 21-25%
GAA activity in heart, increase (GSD IV mice; [7]): 2.8 fold
glycogen content in liver, change (GSD IV mice; [7]): −21%
plasma alanine aminotransferase (ALT) (GSD IV mice; 40 mg/kg, p<0.01 vs untreated): 650±32 U/L
liver/body weight ratio (GSD IV mice; 40 mg/kg, p<0.05 vs untreated): 5.0±0.2%
plasma aspartate aminotransferase (AST) (GSD IV mice; 40 mg/kg, p=0.074 vs untreated): 849±50 U/L
GAA activity in skeletal muscles, increase (GSD IV mice; 100 mg/kg): 1.6 fold
glycogen content in liver, change (GSD IV mice; 100 mg/kg weekly i.v. for 4 weeks): −25%
GAA activity in tissues (GSD IV mice; 20, 40, 100 mg/kg, dose dependent): significant increase
GAA activity in quadriceps, increase (GSD IV mice; at either dosage (20 or 40 mg/kg)): negligible
GAA activity in gastrocnemius, increase (GSD IV mice; either treated group (20 or 40 mg/kg)): less than 1 fold
anti-GAA antibodies generated, compared with that reported in GAA-KO mice (GSD IV mice; [8]): significantly less
liver glycogen decrease (GSD III mice; [6]): 24-25%
glycogen content in heart (GSD III mice; 40 mg and 100 mg treatments): significantly reduced
glycogen content in liver (GSD III mice; 40 mg and 100 mg treatments): significantly reduced
ratio of liver/body weight (GSD III mice; 40 mg and 100 mg treatments): reduced
glycogen content in any tissues (GSD III mice; 20-mg treatment): did not affect
glycogen content in skeletal muscles (GSD III mice; 40-mg and 100-mg treatment groups): no significant change
GAA enzyme uptake (GAA activity rank order of tissues) (GSD III mice; weekly i.v. for 4 weeks): liver>heart>diaphragm>leg muscles
plasma alanine aminotransferase (ALT) (GSD III mice; weekly rhGAA for 4 weeks): reduction
plasma alkaline phosphatase (ALP) (GSD III mice; weekly rhGAA for 4 weeks): reduction
plasma aspartate aminotransferase (AST) (GSD III mice; weekly rhGAA for 4 weeks): reduction
plasma creatine kinase (CK) (GSD III mice; weekly rhGAA for 4 weeks): reduction
anti-GAA antibodies generated, compared with that reported in GAA-KO mice (GSD III mice; [8]): significantly less
visual motor, fine motor, and gross motor skills (M-FUN) ([3]; after five months of ERT): improvement
overall clinical response (neurological, occupational and physical therapy reports) ([3]; listed as ERT): a clinical benefit was noted; also recorded: significant positive response
overall clinical response (neurological, occupational and physical therapy reports) ([3]; listed as alglucosidase alfa): significant improvement; also recorded: significant musculoskeletal improvements
fatigue on reassessment ([3]; five months of ERT, listed as ERT): less fatigue
Movement ABC percentile increase [3, 9]: 12
Movement ABC score increase [3, 9]: 5 points
Movement ABC Total Test Score ([3]; re-assessment, 5 months after reinitiation of ERT): 73
Movement ABC percentile ([3]; re-assessment, 5 months after reinitiation of ERT, listed as ERT): 37 percentile and 37th percentile
M-FUN Fine Motor Progress Score [3, 10]: 394
M-FUN Fine Motor Scaled Score [3, 10]: 5 (considered mild/
M-FUN Fine Motor assessment notes [3, 10]: Patient's scaled scores show a fine motor improvement
M-FUN Gross Motor Progress Score [3, 10]: 407
M-FUN Gross Motor Scaled Score [3, 10]: 3 (considered very
M-FUN Gross Motor reassessment notes [3, 10]: gaining new motor skills and is improving in their current
M-FUN Visual Motor Progress Score [3, 10]: 496
M-FUN Visual Motor Scaled Score [3, 10]: 9 (considered “average” or
M-FUN Visual Motor assessment notes [3, 10]: Patient's scaled scores show a visual motor improvement
seizures ([3]; since reinitiation of ERT): better controlled
gross motor abilities assessed by physical therapist ([3]; three months after first initiation of ERT, 20 mg/kg every 2 weeks): began improving

Source: patent US20180326021A1, “Methods and Compositions for the Treatment of Cytoplasmic Glycogen Storage Disorders” (Duke University, priority 2015, published 2018)
